In PubChem BioAssay (NCI):
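These data come from cells grown in 96-well plates and exposed to compound for 48 hours at five concentrations. TGI is the concentration that stops growth completely.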

What was measured:
Experiment in all cases: NCI tumour cell line growth inhibition, 48 h
A498 renal = system: A498 renal
ACHN renal = system: ACHN renal
DU-145 prostate = system: DU-145 prostate
HCT-116 colon = system: HCT-116 colon
HOP-62 NSCLC = system: HOP-62 NSCLC
HS 578T breast = system: HS 578T breast
IGROV1 ovarian = system: IGROV1 ovarian
KM12 colon = system: KM12 colon
MDA-MB-435 = system: MDA-MB-435
OVCAR-3 ovarian = system: OVCAR-3 ovarian
OVCAR-8 ovarian = system: OVCAR-8 ovarian
SF-295 CNS = system: SF-295 CNS
SK-MEL-28 melanoma = system: SK-MEL-28 melanoma
SNB-75 CNS = system: SNB-75 CNS
UO-31 renal = system: UO-31 renal
SR leukemia = system: SR leukemia
HL-60(TB) leukemia = system: HL-60(TB) leukemia

**Q.** How did the TGI (A498 renal) turn out when `CN(CCc1ccc(Br)cc1)CCN1CCCCC1` was run?
**A.** 63.2 µM

**Q.** What about the TGI (ACHN renal) of the same compound?
**A.** > 100 µM

**Q.** And the TGI (DU-145 prostate)?
**A.** > 100 µM

**Q.** What about the TGI (HCT-116 colon) of the same compound?
**A.** > 100 µM

**Q.** And the TGI (HOP-62 NSCLC)?
**A.** > 100 µM

**Q.** And the TGI (HS 578T breast)?
**A.** 52.6 µM

**Q.** What about the TGI (IGROV1 ovarian) of the same compound?
**A.** > 100 µM

**Q.** And the TGI (KM12 colon)?
**A.** 41.9 µM

**Q.** What about the TGI (MDA-MB-435) of the same compound?
**A.** 95.3 µM

**Q.** What about the TGI (OVCAR-3 ovarian) of the same compound?
**A.** > 100 µM

**Q.** And the TGI (OVCAR-8 ovarian)?
**A.** > 100 µM

**Q.** And the TGI (SF-295 CNS)?
**A.** 61.4 µM

**Q.** What about the TGI (SK-MEL-28 melanoma) of the same compound?
**A.** 52.1 µM

**Q.** What about the TGI (SNB-75 CNS) of the same compound?
**A.** 85.4 µM

**Q.** And the TGI (UO-31 renal)?
**A.** > 100 µM

**Q.** Which TGI (A498 renal) does the source give for `CC1CCCOc2ccc(cc2)C=Nc2ccc(cc2)CCc2ccc(cc2)N=Cc2ccc(cc2)OCCC1` (stereo not drawn) here?
**A.** > 100 µM

**Q.** What about the TGI (ACHN renal) of the same compound?
**A.** > 100 µM

**Q.** And the TGI (DU-145 prostate)?
**A.** > 100 µM

**Q.** And the TGI (HCT-116 colon)?
**A.** > 100 µM

**Q.** And the TGI (HOP-62 NSCLC)?
**A.** > 100 µM

**Q.** And the TGI (HS 578T breast)?
**A.** > 100 µM

**Q.** And the TGI (IGROV1 ovarian)?
**A.** > 100 µM

**Q.** What about the TGI (KM12 colon) of the same compound?
**A.** > 100 µM

**Q.** What about the TGI (MDA-MB-435) of the same compound?
**A.** > 100 µM

**Q.** And the TGI (OVCAR-3 ovarian)?
**A.** > 100 µM

**Q.** What about the TGI (OVCAR-8 ovarian) of the same compound?
**A.** > 100 µM

**Q.** What about the TGI (SF-295 CNS) of the same compound?
**A.** > 100 µM

**Q.** And the TGI (SK-MEL-28 melanoma)?
**A.** > 100 µM

**Q.** And the TGI (SNB-75 CNS)?
**A.** > 100 µM

**Q.** And the TGI (SR leukemia)?
**A.** > 100 µM

**Q.** And the TGI (UO-31 renal)?
**A.** > 100 µM

**Q.** What does the source list for `CC(C)(C)CN1[C@@H]2CCCC[C@H]2N(CC(C)(C)C)P1(=O)Cc1ccccc1`?
**A.** TGI (ACHN renal): 28.5 µM; TGI (DU-145 prostate): 30 µM; TGI (HCT-116 colon): 22.6 µM; TGI (HL-60(TB) leukemia): 26.4 µM; TGI (HOP-62 NSCLC): 31.3 µM; TGI (HS 578T breast): 31 µM; TGI (IGROV1 ovarian): 23.3 µM; TGI (KM12 colon): 34.3 µM; TGI (MDA-MB-435): 32.7 µM; TGI (OVCAR-3 ovarian): 23.5 µM; TGI (OVCAR-8 ovarian): 27.7 µM; TGI (SF-295 CNS): 23.1 µM; TGI (SK-MEL-28 melanoma): 31.7 µM; TGI (SNB-75 CNS): 24.1 µM; TGI (SR leukemia): 29.7 µM; TGI (UO-31 renal): 26.1 µM

**Q.** For `CCOC(=O)CSc1nc2ccccc2c(=O)n1N`, which TGI (A498 renal) is on record?
**A.** > 100 µM

**Q.** And the TGI (ACHN renal)?
**A.** > 100 µM

**Q.** What about the TGI (DU-145 prostate) of the same compound?
**A.** > 100 µM

**Q.** And the TGI (HCT-116 colon)?
**A.** > 100 µM

**Q.** What about the TGI (HS 578T breast) of the same compound?
**A.** > 100 µM

**Q.** And the TGI (IGROV1 ovarian)?
**A.** > 100 µM

**Q.** And the TGI (KM12 colon)?
**A.** > 100 µM

**Q.** And the TGI (MDA-MB-435)?
**A.** > 100 µM

**Q.** What about the TGI (OVCAR-3 ovarian) of the same compound?
**A.** > 100 µM

**Q.** What about the TGI (OVCAR-8 ovarian) of the same compound?
**A.** > 100 µM

**Q.** What about the TGI (SF-295 CNS) of the same compound?
**A.** > 100 µM

**Q.** And the TGI (SK-MEL-28 melanoma)?
**A.** > 100 µM

**Q.** What about the TGI (SNB-75 CNS) of the same compound?
**A.** > 100 µM

**Q.** What about the TGI (SR leukemia) of the same compound?
**A.** > 100 µM

**Q.** And the TGI (UO-31 renal)?
**A.** > 100 µM

**Q.** `O=C1CCC(=O)N1CNc1ccc2c(c1)Sc1ccccc1O2` was tested. Which TGI (A498 renal) did it give?
**A.** > 100 µM

**Q.** And the TGI (ACHN renal)?
**A.** > 100 µM

**Q.** And the TGI (DU-145 prostate)?
**A.** > 100 µM

**Q.** And the TGI (HCT-116 colon)?
**A.** 45.7 µM

**Q.** What about the TGI (HL-60(TB) leukemia) of the same compound?
**A.** 54.8 µM

**Q.** What about the TGI (HOP-62 NSCLC) of the same compound?
**A.** > 100 µM

**Q.** And the TGI (HS 578T breast)?
**A.** > 100 µM

**Q.** What about the TGI (IGROV1 ovarian) of the same compound?
**A.** > 100 µM

**Q.** And the TGI (KM12 colon)?
**A.** > 100 µM

**Q.** What about the TGI (MDA-MB-435) of the same compound?
**A.** > 100 µM

**Q.** What about the TGI (OVCAR-3 ovarian) of the same compound?
**A.** 75 µM

**Q.** What about the TGI (OVCAR-8 ovarian) of the same compound?
**A.** 68.5 µM

**Q.** And the TGI (SF-295 CNS)?
**A.** > 100 µM

**Q.** And the TGI (SK-MEL-28 melanoma)?
**A.** > 100 µM

**Q.** What about the TGI (UO-31 renal) of the same compound?
**A.** 91.5 µM

**Q.** What does the source list for `COc1ccc(NC(=O)C(=O)C(CC2C(=O)NC(=S)NC2=O)C(=O)c2ccc3ccccc3c2)c([N+](=O)[O-])c1` (stereo not drawn)?
**A.** TGI (A498 renal): > 100 µM; TGI (ACHN renal): > 100 µM; TGI (DU-145 prostate): > 100 µM; TGI (HCT-116 colon): > 100 µM; TGI (HL-60(TB) leukemia): > 100 µM; TGI (HS 578T breast): > 100 µM; TGI (IGROV1 ovarian): > 100 µM; TGI (KM12 colon): > 100 µM; TGI (MDA-MB-435): > 100 µM; TGI (OVCAR-3 ovarian): > 100 µM; TGI (OVCAR-8 ovarian): > 100 µM; TGI (SF-295 CNS): > 100 µM; TGI (SK-MEL-28 melanoma): > 100 µM; TGI (SNB-75 CNS): > 100 µM; TGI (UO-31 renal): > 100 µM

**Q.** What does the source list for `Cc1ccc(SCC(OCn2cnc3c(N)ncnc32)[C@H](C)F)cc1` (stereo partly drawn)?
**A.** TGI (ACHN renal): > 100 µM; TGI (DU-145 prostate): > 100 µM; TGI (HCT-116 colon): > 100 µM; TGI (HL-60(TB) leukemia): > 100 µM; TGI (HOP-62 NSCLC): > 100 µM; TGI (HS 578T breast): > 100 µM; TGI (IGROV1 ovarian): > 100 µM; TGI (KM12 colon): > 100 µM; TGI (MDA-MB-435): > 100 µM; TGI (OVCAR-3 ovarian): > 100 µM; TGI (OVCAR-8 ovarian): > 100 µM; TGI (SF-295 CNS): > 100 µM; TGI (SK-MEL-28 melanoma): > 100 µM; TGI (SNB-75 CNS): > 100 µM; TGI (SR leukemia): > 100 µM; TGI (UO-31 renal): > 100 µM

**Q.** With `Cc1cc(S(=O)(=O)Nc2nc(N)n(-c3cnc4ccccc4n3)n2)c(S)cc1Cl` as the compound, how does the TGI (A498 renal) read?
**A.** > 100 µM

**Q.** And the TGI (ACHN renal)?
**A.** > 100 µM

**Q.** And the TGI (DU-145 prostate)?
**A.** > 100 µM

**Q.** And the TGI (HCT-116 colon)?
**A.** > 100 µM

**Q.** And the TGI (HL-60(TB) leukemia)?
**A.** > 100 µM

**Q.** What about the TGI (HOP-62 NSCLC) of the same compound?
**A.** > 100 µM

**Q.** And the TGI (HS 578T breast)?
**A.** > 100 µM

**Q.** What about the TGI (IGROV1 ovarian) of the same compound?
**A.** > 100 µM

**Q.** And the TGI (KM12 colon)?
**A.** > 100 µM

**Q.** And the TGI (MDA-MB-435)?
**A.** > 100 µM

**Q.** And the TGI (OVCAR-3 ovarian)?
**A.** > 100 µM

**Q.** What about the TGI (OVCAR-8 ovarian) of the same compound?
**A.** > 100 µM

**Q.** What about the TGI (SK-MEL-28 melanoma) of the same compound?
**A.** > 100 µM

**Q.** And the TGI (SNB-75 CNS)?
**A.** > 100 µM

**Q.** What about the TGI (UO-31 renal) of the same compound?
**A.** > 100 µM
